Measurements published in patent publication US20110177180A1, “HERBAL COMPOSITION AND METHOD FOR THE TREATMENT OF VIRAL INFECTION” (PIRAMAL LIFE SCIENCES LIMITED, priority 2008, published 2011).

Columns and labels:
HSV-2 [1] = experiment: Mouse vaginal model of HSV-2 infection (Example 14); assay type: in vivo, BALB/c mice; settings: 75 mg/kg in PBS intravaginal, three times a day for 5 days; 5×10^3 pfu; 21 days
Experimental: The assay was done as reported in Antiviral Research, 2006, 69:77-85.
(§1) Female BALB/c mice of eight weeks age and body weight 18-20 g were used for intravaginal (IVAG) challenge (vaginal inoculation) with the virus (using viral stock of step 2 of example 10). Five days prior to the IVAG challenge, mice were injected subcutaneously (SC) with 2 mg of progesterone (Depo-Provera®; Pfizer, Belgium) in the upper back, using a 29-gauge needle. On the day of challenge, mice were anesthetized with Ketamine (150 mg/kg) and Xylazine (10 mg/kg) by intraperitoneal injection. Mice were inoculated intravaginally with 5×10^3 pfu of the virus using a micropipette in a total volume of 20 μL DMEM. […] Each group had ten animals. Animals were treated three times a day with the treatment intervals of 4 hours for 5 days. 20 μL of the above samples were injected into the vaginal vault using micropipette.
The animals were assessed daily for survival and extravaginal disease signs through 21 days of post inoculation (PI). […]

HSV-2 [2] = experiment: Mouse vaginal model of HSV-2 infection (Example 15); assay type: in vivo, BALB/c mice; settings: 225mg/kg
Experimental: as §1
The animals were assessed daily for survival and extravaginal disease signs through 21 days of post inoculation (PI). The severity of the viral disease (extravaginal signs of disease) was quantified using a well-established lesion score scale, also known as five-point scale as follows: • 0: no apparent infection; • 1: few isolated papules and slight redness of extravaginal tissue; • 2: few isolated papules, ulcers, and/or eschar and/or swelling and redness of extravaginal tissue; • 3: multiple fused ulcers/eschars, moderate swelling and redness of extravaginal tissue with extension to surrounding tissue; • 4: ulceration with severe redness and swelling of extravaginal tissue with extension to surrounding tissue, rear leg paralysis; and • 5: severe ulceration of extravaginal tissue with extension to surrounding tissue, weight loss, rear leg paralysis and death.
The assay was performed as mentioned in Example 14 with modifications as mentioned below: • (i) Mice were inoculated intravaginally with 2×10^4 pfu of the virus instead of 5×10^3 pfu in Example 14. • (ii) Evaluation was done by topical application of the formulations (Formulation I, Formulation II and Formulation III) instead of injection of extracts into vaginal vault of the animals in Example 14. • (iii) One more group of animals was studied: “infection control group” in which the mice were inoculated with the virus but were not treated.
Extract of Example 1 (dissolved in PBS) was injected into the vaginal vault using micropipette. Formulation I, Formulation II and Formulation III were applied topically (25 mg) thrice daily for a 5 day period. 25 mg of Formulation IB, IIB or IIIB correspond to 375 mg/kg dose; 25 mg of Formulation IC, IIC or IIIC correspond to 750 mg/kg dose and 25 mg of Formulation ID, IID and IIID correspond to 1500 mg/kg dose evaluated in the animals.

HSV-2 [3] = experiment: CPE inhibition assay - crystal violet staining method; assay type: cell-based; settings: Human alphaherpesvirus 2; 25 μg/mL; Vero cells, HSV-2 100 TCID50, 48 hours
Experimental: The assay was designed to detect agents (in this case, the extracts) acting at any stage of the virus reproductive cycle. The assay was done as reported in Indian J. Med. Res., 2004, 120:24-29.
Vero cells (obtained in step 1 of Example 10) were propagated at a density of 1×10^4 cells/well in 96 well plate and incubated at 37° C. in a CO2 incubator for 24 hours to form a monolayer. […] Appropriate controls were included such as Vero cells alone (cell control), Vero cells with virus (virus control) and Vero cells with virus and the standard compound acyclovir. Acyclovir was checked at the following concentrations (DMSO stock of 20 mg/mL of acyclovir was diluted to 100 μg/mL with DMEM containing 2% FBS): 25 μg/mL, 3.125 μg/mL, 1.56 μg/mL and 0.78 μg/mL and 0.39 μg/mL. After one hour, cells were infected with a multiplicity of infection (moi) of 100 TCID50 of viral dose per well using viral stock obtained in step 2 of Example 10. The infected cells were incubated with maintenance medium (DMEM with 2% FBS) for another 48 hours. […] The staining solution was aspirated out and the plates rinsed using distilled water until all excess stain was washed away. The plates were allowed to dry for 24 hours. CPE was evaluated visually, after staining the plaques, and microscopically and graded according to the percentage of CPE inhibition as compared to controls. […]

[4] = positive control in evaluation of Formulation I
[5] = positive control in evaluation of Formulation II
[6] = positive control in evaluation of Formulation III
[7] = positive control in evaluation of extract of Example 1

Structure (SMILES): Nc1nc2c(ncn2COCCO)c(=O)[nH]1 [Acyclovir]
- deaths during the experiment (HSV-2 [1]): None of the mice died during the experiment
- signs of extravaginal disease (HSV-2 [1]): None of the mice showed signs of extravaginal disease
- extravaginal disease (HSV-2 [2]; [4]): None of the mice showed extravaginal disease
- survival rate (HSV-2 [2]; [4]): 100%
- course of extravaginal disease (HSV-2 [2]; [5]): continued till day 21
- day on which extravaginal disease appeared (HSV-2 [2]; [5]): 18 days
- survival rate (HSV-2 [2]; [5]): 100%
- extravaginal disease (HSV-2 [2]; [6]): None of the mice showed extravaginal disease
- survival rate (HSV-2 [2]; [6]): 100%
- extravaginal disease (HSV-2 [2]; [7]): None of the mice showed extravaginal disease
- survival rate (HSV-2 [2]; [7]): 100%
- inhibition at 25 µg/mL (HSV-2 [3]): 76 to 100%
